Results: ChEMBL document CHEMBL1124752, “Cyclobut-A and cyclobut-G: broad-spectrum antiviral agents with potential utility for the therapy of AIDS” (J Med Chem, 1990)
In brackets after ≈: the same amount, converted by molar mass.

What was measured:
[1] = tested on: Murid betaherpesvirus 1; assay: Number of survivors per number of systemic MCMV infected mice treated with 100 mg/kg/day; 13/15; format: functional
[2] = tested on: Human alphaherpesvirus 1; assay: Tested for mean day to death of nonsurvivors against HSV-1 infection in mice at 1.2 mg/kg/day; format: functional, herpes simplex virus
[3] = tested on: Murid betaherpesvirus 1; assay: Tested for mean day to death of nonsurvivors against systemic MCMV infection in mice at 3.8 mg/kg/day; format: functional
[4] = tested on: Human alphaherpesvirus 1; assay: Number of survivors per number of HSV-1 infected mice treated with 4.7 mg/kg/day; 7/10; format: functional, herpes simplex virus
[5] = tested on: Human alphaherpesvirus 3; assay: In vitro antiviral activity tested against herpesvirus, VZV, Ellen strain by plaque reduction assay in human foreskin fibroblasts; format: functional
[6] = tested on: Human alphaherpesvirus 2; assay: In vitro antiviral activity tested against herpesvirus, HSV-2, X-79 strain by plaque reduction assay in human foreskin fibroblasts; format: functional
[7] = tested on: Murid betaherpesvirus 1; assay: Tested for mean day to death of nonsurvivors against systemic MCMV infection in mice at 100 mg/kg/day; format: functional
[8] = tested on: Human alphaherpesvirus 3; assay: In vitro antiviral activity tested against herpesvirus, VZV, OKA strain by plaque reduction assay in human foreskin fibroblasts; format: functional
[9] = tested on: Human alphaherpesvirus 2; assay: Number of survivors per number of HSV-2 infected mice treated with 7.8 mg/Kg/day; 5/10; format: functional, herpes simplex virus
[10] = tested on: Human alphaherpesvirus 2; assay: In vitro antiviral activity tested against herpesvirus, HSV-2, JEN strain by plaque reduction assay in human foreskin fibroblasts; format: functional
[11] = tested on: Murid betaherpesvirus 1; assay: Number of survivors per number of systemic MCMV infected mice treated with 11.2 mg/kg/day; 9/15; format: functional
[12] = tested on: Human immunodeficiency virus 1; assay: Tested for the determination of percentage protection at 10 uM against HIV-1 in ATH8 cells; format: functional, ATH-8
[13] = tested on: Human alphaherpesvirus 2; assay: Tested for mean day to death of nonsurvivors against HSV-2 encephalitis in mice at 125 mg/kg/day; format: functional, herpes simplex virus
[14] = tested on: Human alphaherpesvirus 1; assay: In vitro antiviral activity tested against herpesvirus, HSV-1, E-377 strain by plaque reduction assay in human foreskin fibroblasts; format: functional
[15] = tested on: Human alphaherpesvirus 2; assay: In vitro antiviral activity tested against herpesvirus, HSV-2, MS strain by plaque reduction assay in human foreskin fibroblasts; format: functional
[16] = tested on: Human alphaherpesvirus 2; assay: Tested for mean day to death of nonsurvivors against HSV-2 encephalitis in mice at 31.2 mg/kg/day; format: functional, herpes simplex virus
[17] = tested on: Murid betaherpesvirus 1; assay: In vitro antiviral activity tested against herpesvirus, MCMV, Smith strain by plaque reduction assay in mouse embryo fibroblasts; format: functional
[18] = tested on: Human betaherpesvirus 5; assay: In vitro antiviral activity tested against herpesvirus, HCMV, Davis strain by plaque reduction assay in human foreskin fibroblasts; format: functional
[19] = tested on: Human betaherpesvirus 5; assay: In vitro antiviral activity tested against herpesvirus, HCMV, LA strain by plaque reduction assay in human foreskin fibroblasts; format: functional
[20] = tested on: Murid betaherpesvirus 1; assay: Tested for the effective dose required to inhibit systemic MCMV in infected mice; format: functional
[21] = tested on: Human immunodeficiency virus 1; assay: Tested for the determination of percentage protection at 100 uM against HIV-1 in ATH8 cells; format: functional, ATH-8
[22] = tested on: Raji; assay: Tested for the inhibition of diffuse early antigen production assayed by immunofluorescent monoclonal antibody in Raji cells; format: functional; conditions: Homo sapiens
[23] = tested on: Human alphaherpesvirus 1; assay: Tested for mean day to death of nonsurvivors against HSV-1 infection in mice at 4.7 mg/kg/day; format: functional, herpes simplex virus
[24] = tested on: Murid betaherpesvirus 1; assay: Number of survivors per number of systemic MCMV infected mice treated with 3.8 mg/kg/day; 7/15; format: functional
[25] = tested on: Human alphaherpesvirus 2; assay: Number of survivors per number of HSV-2 infected mice treated with 125 mg/kg/day; 8/10; format: functional, herpes simplex virus
[26] = tested on: Human alphaherpesvirus 2; assay: Number of survivors per number of HSV-2 infected mice treated with 31.2 mg/Kg/day; 4/10; format: functional, herpes simplex virus
[27] = species on record: Homo sapiens; assay: The drug concentration was determined to reduce proliferation of human foreskin fibroblasts to 50% of untreated controls in proliferation assay; format: functional; conditions: read-out: ID50 (the source's name)
[28] = tested on: Human immunodeficiency virus 1; assay: Tested for the determination of percentage toxicity at 10 uM against HIV-1 in ATH8 cells; format: organism-based; conditions: human immunodeficiency virus 1, ath-8, 10 µM
[29] = tested on: Human alphaherpesvirus 2; assay: Tested for mean day to death of nonsurvivors against HSV-2 encephalitis in mice at 7.8 mg/kg/day; format: functional, herpes simplex virus
[30] = tested on: Murid betaherpesvirus 1; assay: Tested for mean day to death of nonsurvivors against systemic MCMV infection in mice at 33.4 mg/kg/day; format: functional
[31] = tested on: Human immunodeficiency virus 1; assay: Tested for the determination of percentage toxicity at 100 uM against HIV-1 in ATH8 cells; format: organism-based; conditions: human immunodeficiency virus 1, ath-8, 100 µM
[32] = tested on: Human betaherpesvirus 5; assay: In vitro antiviral activity tested against herpesvirus, HCMV, AD169 strain by plaque reduction assay in human foreskin fibroblasts; format: functional
[33] = tested on: Human alphaherpesvirus 1; assay: Tested for the effective dose required to inhibit HSV-1 in infected mice; format: functional, herpes simplex virus
[34] = tested on: Human alphaherpesvirus 1; assay: Number of survivors per number of HSV-1 infected mice treated with 1.2 mg/kg/day; 4/10; format: functional, herpes simplex virus
[35] = tested on: Human alphaherpesvirus 1; assay: Number of survivors per number of HSV-1 infected mice treated with 18.7 mg/kg/day; 10/10; format: functional, herpes simplex virus
[36] = tested on: Human alphaherpesvirus 2; assay: In vitro antiviral activity tested against herpesvirus, HSV-2, HEET strain by plaque reduction assay in human foreskin fibroblasts; format: functional
[37] = tested on: Human immunodeficiency virus 1; assay: Tested for the determination of percentage protection at 50 uM against HIV-1 in ATH8 cells; format: functional, ATH-8
[38] = tested on: Human immunodeficiency virus 1; assay: Tested for the determination of percentage toxicity at 50 uM against HIV-1 in ATH8 cells; format: organism-based; conditions: human immunodeficiency virus 1, ath-8, 50 µM
[39] = tested on: Murid betaherpesvirus 1; assay: Tested for mean day to death of nonsurvivors against systemic MCMV infection in mice at 11.2 mg/kg/day; format: functional
[40] = tested on: Human betaherpesvirus 5; assay: In vitro antiviral activity tested against herpesvirus, HCMV, EC strain by plaque reduction assay in human foreskin fibroblasts; format: functional
[41] = tested on: Human immunodeficiency virus 1; assay: Tested for the determination of percentage toxicity at 1 uM against HIV-1 in ATH8 cells; format: organism-based; conditions: human immunodeficiency virus 1, ath-8, 1 µM
[42] = tested on: Murid betaherpesvirus 1; assay: Number of survivors per number of systemic MCMV infected mice treated with 33.4 mg/kg/day; 13/15; format: functional
[43] = tested on: Human alphaherpesvirus 2; assay: (§1) Tested for the effective dose required to inhibit HSV-2 encephalitis in infected mice; format: functional, herpes simplex virus
[44] = tested on: Human immunodeficiency virus 1; assay: Tested for the determination of percentage protection at 1 uM against HIV-1 in ATH8 cells; format: functional, ATH-8
[45] = tested on: Human alphaherpesvirus 1; assay: Tested for mean day to death of nonsurvivors against HSV-1 infection in mice at 12.5 mg/kg per day; format: functional
[46] = tested on: Human alphaherpesvirus 2; assay: as §1; format: functional
[47] = tested on: Human alphaherpesvirus 2; assay: Number of survivors per number of HSV-2 infected mice treated with 7.8 mg/kg per day; 0/10; format: functional
[48] = tested on: Human alphaherpesvirus 2; assay: Tested for mean day to death of nonsurvivors against HSV-2 encephalitis in mice at 125 mg/kg per day; format: functional
[49] = tested on: Human alphaherpesvirus 2; assay: Tested for mean day to death of nonsurvivors against HSV-2 encephalitis in mice at 7.8 mg/kg per day; format: functional
[50] = tested on: Human alphaherpesvirus 2; assay: Number of survivors per number of HSV-2 infected mice treated with 31.2 mg/kg per day; 0/10; format: functional
[51] = tested on: Human alphaherpesvirus 1; assay: Tested for mean day to death of nonsurvivors against HSV-1 infection in mice at 3.1 mg/kg per day; format: functional
[52] = tested on: Human alphaherpesvirus 2; assay: Number of survivors per number of HSV-2 infected mice treated with 125 mg/kg per day; 3/10; format: functional
[53] = tested on: Human alphaherpesvirus 2; assay: Tested for mean day to death of nonsurvivors against HSV-2 encephalitis in mice at 31.2 mg/kg per day; format: functional
[54] = read-out: ED50 (the source's name)
[55] = read-out: ID50 (the source's name)

Q: For Nc1nc(O)c2ncn([C@@H]3C[C@H](CO)C3CO)c2n1 (stereo partly specified), which Survivors / treated [1] is on record?
A: 13

Q: And the MDD [2]?
A: 9.3

Q: What about the MDD [3] of the same compound?
A: 5.9

Q: And the Survivors / treated [4]?
A: 7

Q: What about the EC50 [5, 54] of the same compound?
A: 0.4 µg/mL (≈ 1.51 µM)

Q: What about the IC50 [5, 55] of the same compound?
A: > 100 µg/mL

Q: And the EC50 [6, 54]?
A: 0.06 µg/mL (≈ 0.226 µM)

Q: And the IC50 [6, 55]?
A: > 100 µg/mL

Q: And the MDD [7]?
A: 3.5

Q: What about the EC50 [8, 54] of the same compound?
A: 0.4 µg/mL (≈ 1.51 µM)

Q: And the IC50 [8, 55]?
A: > 100 µg/mL

Q: What about the Survivors / treated [9] of the same compound?
A: 5

Q: And the EC50 [10, 54]?
A: 0.05 µg/mL (≈ 0.188 µM)

Q: And the IC50 [10, 55]?
A: > 100 µg/mL

Q: What about the Survivors / treated [11] of the same compound?
A: 9

Q: What about the Protection [12] of the same compound?
A: 100%

Q: What about the MDD [13] of the same compound?
A: 16.3

Q: And the EC50 [14, 54]?
A: 0.05 µg/mL (≈ 0.188 µM)

Q: What about the IC50 [14, 55] of the same compound?
A: > 100 µg/mL

Q: And the EC50 [15, 54]?
A: 0.07 µg/mL (≈ 0.264 µM)

Q: And the IC50 [15, 55]?
A: > 100 µg/mL

Q: What about the MDD [16] of the same compound?
A: 11.2

Q: And the EC50 [17, 54]?
A: 0.1 µg/mL (≈ 0.377 µM)

Q: What about the IC50 [17, 55] of the same compound?
A: > 100 µg/mL

Q: What about the EC50 [18, 54] of the same compound?
A: 4.9 µg/mL (≈ 18.5 µM)

Q: And the IC50 [18, 55]?
A: > 100 µg/mL

Q: What about the EC50 [19, 54] of the same compound?
A: 1.2 µg/mL (≈ 4.52 µM)

Q: What about the IC50 [19, 55] of the same compound?
A: > 100 µg/mL

Q: And the ED50 [20]?
A: 2.2 mg/kg/day

Q: And the Protection [21]?
A: 11%

Q: What about the EC50 [22, 54] of the same compound?
A: 0.01 µg/mL (≈ 0.0377 µM)

Q: And the IC50 [22, 55]?
A: 94 µg/mL (≈ 354 µM)

Q: And the MDD [23]?
A: 9.3

Q: What about the Survivors / treated [24] of the same compound?
A: 7

Q: What about the Survivors / treated [25] of the same compound?
A: 8

Q: And the Survivors / treated [26]?
A: 4

Q: What about the IC50 [27] of the same compound?
A: 27 µg/mL (≈ 102 µM)

Q: And the Cytotoxity [28]?
A: 0%

Q: And the MDD [29]?
A: 12.1

Q: And the MDD [30]?
A: 4.5

Q: And the Cytotoxity [31]?
A: 83%

Q: What about the EC50 [32, 54] of the same compound?
A: 6.2 µg/mL (≈ 23.4 µM)

Q: What about the IC50 [32, 55] of the same compound?
A: > 100 µg/mL

Q: And the ED50 [33]?
A: 1.9 mg/kg/day

Q: And the Survivors / treated [34]?
A: 4

Q: And the Survivors / treated [35]?
A: 10

Q: What about the EC50 [36, 54] of the same compound?
A: 0.07 µg/mL (≈ 0.264 µM)

Q: And the IC50 [36, 55]?
A: > 100 µg/mL

Q: And the Protection [37]?
A: 46%

Q: What about the Cytotoxity [38] of the same compound?
A: 41%

Q: And the MDD [39]?
A: 5.8

Q: What about the EC50 [40, 54] of the same compound?
A: 3.9 µg/mL (≈ 14.7 µM)

Q: What about the IC50 [40, 55] of the same compound?
A: > 100 µg/mL

Q: What about the Cytotoxity [41] of the same compound?
A: 8%

Q: And the Survivors / treated [42]?
A: 13

Q: What about the ED50 [43] of the same compound?
A: 39.8 mg/kg/day

Q: What about the Protection [44] of the same compound?
A: 29%

Q: Nc1ncnc2c1ncn2[C@@H]1O[C@H](CO)[C@@H](O)[C@@H]1O [VIDARABINE] was tested. Which MDD [45] did it give?
A: 13.5

Q: What about the ED50 [46] of the same compound?
A: > 125 mg/kg/day

Q: And the Survivors / treated [47]?
A: 0

Q: And the MDD [48]?
A: 11.1

Q: And the MDD [49]?
A: 7.9

Q: And the Survivors / treated [50]?
A: 0

Q: What about the MDD [51] of the same compound?
A: 6.9

Q: And the Survivors / treated [52]?
A: 3

Q: And the MDD [53]?
A: 9.3
